Measurements taken from patent publication US20110143946A1, “Method for predicting the response of a tumor in a patient suffering from or at risk of developing recurrent gynecologic cancer towards a chemotherapeutic agent” (SIEMENS HEALTHCARE DIAGNOSTICS INC., priority 2007, published 2011).

Assays:
primary tumors = assay: in vitro chemosensitivity assay of primary tumors (ATP-measurement, AUC of dose-response curve); type: cell-based; settings: 6 days of incubation; for response (chemosensitivity) of tumors of the basal subtype: basal molecular subtype (MLPH<2000); for response (chemosensitivity) of tumors of the luminal A subtype: luminal A molecular subtype (ESR1 >6000, PGR >160)
Experimental: In a second step for the identification of an optimal predictive gene signature in vitro chemosensitivity assays of primary tumors are performed to determine the response of a tumor towards a single chemotherapeutic agent. In said in vitro chemosensitivity assays the primary tumors were cultivated in different assays with increasing concentrations of the agents. After 6 days of incubation the vitality of the tumor cells were determined with an ATP-measurement. Hereby, the growing inhibition for the different agent concentrations could be determined and a dose-response curve could be provided. For each tumor the Area under the dose-response curve (AUC) could be determined for the different agents. The AUC is used to evaluate the response of a tumor towards a chemotherapeutic agent. The bigger the AUC, the more sensitive is the tumor towards the agent. The tumor samples were classified according to their sensitivity towards the agents into three classes (resistant, intermediate, sensitive) via the tertiles of the AUC arrangement.

NCI 60 cell lines = assay: NCI 60 cell line chemosensitivity (GI-50); type: cell-based; settings: AKR1C1 cut-off score 5000
Experimental: In this study several tumor cell lines of different cancer types were tested for their sensitivity towards several chemotherapeutic agents. The GI-50 value (concentration, where half of the tumor cells are inhibited regarding growing) for Paclitaxel was used to test, whether AKR1C1 is appropriate for a prediction of a Paclitaxel sensitivity in cell lines. […] The defined cut-off score (5000) allowed a significant classification (p=0.0049) of the resistant and sensitive tumor cells of the NCI 60 cell lines (FIG. 14).
NCI 60 cell lines were classified with the marker gene AKR1C1 (cut-off score 5000). Onto the ordinate the concentration of Palitaxel is depicted, which is needed for the inhibition of half of the cells (GI-50). Altogether for Paclitaxel 54 GI-50 values for the cell lines were provided.

Structure (SMILES) | response (chemosensitivity) of tumors of the basal subtype (primary tumors) | response (chemosensitivity) of tumors of the luminal A subtype (primary tumors) | sensitivity (GI-50) of cell lines with high expression of AKR1C1 (NCI 60 cell lines)
COc1cccc2c1C(=O)c1c(O)c3c(c(O)c1C2=O)C[C@@](O)(C(=O)CO)C[C@@H]3O[C@H]1C[C@H](N)[C@@H](O)[C@H](C)O1 [Epirubicin] | particularly sensitive | resistant | 
CC(=O)O[C@H]1C(=O)[C@@]2(C)[C@H]([C@H](OC(=O)c3ccccc3)[C@]3(O)C[C@H](OC(=O)[C@H](O)[C@@H](NC(=O)c4ccccc4)c4ccccc4)C(C)=C1C3(C)C)[C@]1(OC(C)=O)CO[C@@H]1C[C@@H]2O [Paclitaxel] | particularly sensitive | resistant | mainly are resistant
